Results on 13 compounds are retold here after PubChem BioAssay (NCI).

The structures appear in SMILES notation.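 Test compounds were applied to cells in 96-well plates for 48 hours at 5 doses. Definition used: TGI = concentration required for complete inhibition of growth.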

Assay in all cases: DTP human tumour cell line panel, 48 h
Experiment [1] concerns A549 NSCLC.
Experiment [2] relates to NCI-H226 lung.
The test system of experiment [3] is MCF7 breast.
The test system of experiment [4] is CAKI-1 renal.
Experiment [5] deals with EKVX NSCLC.
For experiment [6], the system named is NCI-H460 lung.
For experiment [7], the system named is SW-620 colon.
Experiment [8] has as its system DU-145 prostate.
Experiment [9] deals with PC-3 prostate.
Experiment [10] has as its system HCT-116 colon.

For the compound `COC(=O)[C@]1(c2cc3ccccc3n2S(=O)(=O)c2ccccc2)CC2CN(C(=O)OCc3ccccc3)C1C1OC(C)(C)OC21` (some centres not stated), the TGI in experiment [1], in experiment [2], in [3], in experiment [4], in experiment [5] and in experiment [6] was > 100 µM in each case. Besides, the TGI in experiment [7], in experiment [8], in experiment [9] and in experiment [10] was > 100 µM each time.
Consider `COc1cc(CCNC2=CC(=O)c3nc[nH]c3C2=O)ccc1O`, for which the TGI (as a rule, the concentration giving total growth inhibition) in [1] is 68.3 µM; in experiment [2], 86.8 µM; in [3], 33.5 µM; in experiment [4] it was > 100 µM; in experiment [5] it was 47.4 µM; in experiment [6] it was > 100 µM. Further, the TGI in [7] was 58.6 µM; in experiment [8] it was 34.6 µM; in experiment [9] it was > 100 µM; in [10], 48 µM.
Regarding `Cc1cn(CCCCCCOC(=O)NC(CCCNC(N)=O)C(=O)O)c(=O)[nH]c1=O` (configuration not stated), the TGI in experiment [1], in [2], in [3], in experiment [4], in experiment [5] and in [6] was > 100 µM each time. For the same compound, the TGI in experiment [7], in [8], in [9] and in experiment [10] was > 100 µM in each case.
Consider `O=C1[C@@H]2[C@@H](CN3CN(c4ccccc4)N=C(c4ccccc4)[C@@]23c2ccccc2)C(=O)N1c1ccccc1`, for which the TGI in [1] came out at 19.7 µM; in [2], 8.87 µM; in experiment [3] it was 4.04 µM; in [4], 2.45 µM; in experiment [5], 11 µM; in experiment [6], 50.4 µM. Moreover, the TGI in [7] was found to be 3.84 µM; in experiment [8] it was 24.7 µM; in experiment [9] it was 27.1 µM; in [10], 31.8 µM.
Turning to `COc1cc2c(cc1O)C1Cc3ccc(OC)c(O)c3C[N+]1(C)CC2` (configuration not stated), the TGI in [1], in [2], in experiment [3], in [4], in experiment [5] and in [6] was > 100 µM throughout. Moreover, the total growth inhibition concentration (TGI) in experiment [7], in experiment [8], in experiment [9] and in experiment [10] was > 100 µM in each case.
In the case of `CSC(SC)=C(C(=O)c1ccc(Cl)cc1)n1c(=O)sc2cc(Br)ccc21`, the concentration for total growth inhibition (TGI) in [1], in experiment [2], in experiment [3], in experiment [4], in experiment [5] and in experiment [6] was > 100 µM each time. Moreover, the concentration for total growth inhibition (TGI) in [7], in experiment [8], in [9] and in experiment [10] was > 100 µM in each case.
As for `Oc1ccc(C(O)C2CCCCN2)cc1O` (configuration not stated), the concentration for total growth inhibition (TGI) in experiment [1], in experiment [2], in experiment [3], in experiment [4], in experiment [5] and in experiment [6] was > 100 µM in each case. Besides, the TGI in [7], in [8], in experiment [9] and in experiment [10] was > 100 µM throughout.
Take `N#Cc1c(NC(=S)Nc2ccc(Cl)cc2)sc2c1CCN(N1CCc3c(sc(NC(=S)Nc4ccc(Cl)cc4)c3C#N)C1)C2`: the total growth inhibition concentration (TGI) in experiment [1] is > 100 µM; in [2], 34.4 µM; in [3], > 100 µM; in experiment [4] it was > 100 µM; in experiment [5] it was > 100 µM; in experiment [6] it was > 100 µM. Besides, the TGI in experiment [7], in experiment [8], in experiment [9] and in [10] was > 100 µM throughout.
Consider `O=C1c2ccccc2-c2nc3ccncc3n21`, for which the TGI in [1], in experiment [2], in experiment [3], in experiment [4], in [5] and in experiment [6] was > 100 µM in each case. The TGI in experiment [7], in [8], in experiment [9] and in experiment [10] was > 100 µM in each case.
As for `FC1=C2C3CCC(C3)C2C1(F)F` (configuration not stated), the TGI in experiment [1], in [2], in experiment [3], in experiment [4], in experiment [5] and in [6] was > 100 µM throughout. The total growth inhibition concentration (TGI) in experiment [7], in experiment [8], in [9] and in experiment [10] was > 100 µM in each case.
As to `C=C1CCC[C@@H](C)C(O)[C@@H]2OC(=O)C(=C)[C@@H]2C[C@@H](OC(C)=O)[C@@]2(C)CC[C@@H]1O2` (some centres not stated), the TGI is > 50 µM in experiment [1]; 16 µM in [2]; 11.6 µM in [3]; 13.6 µM in experiment [4]; 15.1 µM in experiment [5]; 16.7 µM in [7]. Further, the TGI in [8] was found to be 14.3 µM; in experiment [9], 16.2 µM; in experiment [10], 13.8 µM.
In the case of `COC(=O)C1=C(CCCCO[Si](C)(C)C(C)(C)C)NC(=O)N2[C@H](CCOCc3ccccc3)CC[C@@H]12`, the TGI in experiment [1], in [2], in [3], in experiment [4], in experiment [5] and in [6] was > 100 µM in each case. Besides, the TGI in experiment [8], in experiment [9] and in experiment [10] was > 100 µM in each case.
On to `CC(O)c1nc(C#N)c(N)o1` (configuration not stated), for which the TGI in experiment [1], in experiment [2], in experiment [3], in [4], in experiment [5] and in [7] was > 100 µM throughout. For the same compound, the concentration for total growth inhibition (TGI) in [8], in [9] and in experiment [10] was > 100 µM in each case.
